# Test system: AcTPS2
# Test: product formation, ethyl acetate extraction, Michaelis-Menten fit
# Format: biochemical, Astilbe chinensis
# Details: 50 mM Tris-HCl pH 7.5, 1 mM MgCl2, 2 mM DTT, 12.5% glycerol, 0.1% Tween 20, 30 °C, 1 h
compound,measurement,value
"CC(C)=CCC/C(C)=C/CC/C(C)=C/COP(=O)(O)OP(=O)(O)O [FPP, farnesyl diphosphate]",Km,23.8 µM

# — PMC12602695 (Nature Communications, 2025)
